pKd: −log10 of the molar value.
Biological target: T1, RNase P holoenzyme (Thermotoga maritima, UniProt Q9X1H4)
T1 construct: GST (cleaved yes); made in house; host or cells: E. coli BL21(DE3)pLysS
T1 sequence (Q9X1H4 1-117): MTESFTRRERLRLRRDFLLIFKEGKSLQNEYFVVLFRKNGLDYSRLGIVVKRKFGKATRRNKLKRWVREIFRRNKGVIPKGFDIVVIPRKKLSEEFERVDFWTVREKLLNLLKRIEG
Test: Biolayer interferometry binding to immobilized RNase P holoenzyme
Design: species or system T. maritima
Conditions: BLI, holoenzyme at 400 nM immobilized on Ni-NTA
Experimental: Real-time binding assays of the holoenzyme, P RNA, P protein, the substrate minihelix and the 5′-leader to individual compounds were performed by biolayer interferometry using an Octet RED96 system (ForteBio). For the holoenzyme or P RNA, a 5′ biotinylated RNA oligonucleotide with the sequence 5′biotin-CAUUCCAGACGAU was immobilized on Super Streptavidin (SSA) biosensors. Then, a modified P RNA or holoenzyme was added. The P RNA modification consisted of a sequence with part of the P1 stem sequence complementary to the biotinylated oligonucleotide (AUCGUCUGGA) (Supplementary Figure S23A). P1 is far from the active site or other regions involved in specific interactions (Supplementary Figure S23B) ([19]). The activity of this construct was indistinguishable from the wild-type holoenzyme. Alternatively, the holoenzyme was immobilized through the His-tagged P protein from T. maritima at 0.05 mg/ml (3.4 μM) on Ni-NTA biosensors. […] Kinetic binding parameters were calculated using Data Analysis 8.2 (ForteBio, Inc.). […]
Figure 4. […] Symbols represent the mean ± standard error as determined from three independent experiments at each concentration. […] RNase P holoenzyme was immobilized on Ni-NTA biosensors, incubated with purpurin at varying concentrations (0–400 μM), and then the association and dissociation pre-tRNA was monitored. […]

O=C1c2ccccc2C(=O)c2c(O)c(O)cc(O)c21 [Purpurin, 1,2,4-trihydroxyanthraquinone]
pKd: 4.88

From article PMC6614837 (Nucleic Acids Research, 2019)
